Data: patent publication US8470889B2 (TRT Pharma Inc., priority 2008, dated 2013)
Like-named read-outs stand apart in the source and are kept apart here.

Legend:
MCF-7 cells = test: Growth inhibition, MCF-7 breast cancer cells; format: cell-based; conditions: for IC50: Homo sapiens, MCF7, read-out: Cytotoxicity, IC50 (μM) MCF-7
Description: (§1) All samples were in triplicate.

H-1975 cells = test: Growth inhibition, H-1975 lung cancer cells; format: cell-based; conditions: for IC50: Homo sapiens, NCI-H1975, read-out: Cytotoxicity, IC50 (μM) H-1975
Description: as §1

C4-2B cells [1] = test system: C4-2B cells;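 further: cells treated with a dilution series for 72 h, then MTT added and absorbance read at 600 nm, IC50 fitted from dose-response curves by nonlinear regression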
Description: (§2) MDA PCa 2b was seeded at the same density in medium BRFF-HPC1 (Athena Enzyme Systems, Baltimore, Md., USA) supplemented with 20% FBS. After overnight incubation, the medium was changed to a fresh medium containing different concentrations of test compounds diluted from stock DMSO solution. The final concentration of DMSO is 0.5%. After 72 h of incubation with test compounds, 20 μL of 3-(4,5-dimethyl thiazol-2-yl)-2,5-diphenyltetrazolium bromide (MTT) solution (5 mg/mL in PBS) were added to each well and incubated further for 2 h. Next, the supernatant was aspirated and the MTT formazan formed by metabolically viable cells was dissolved in 100 μL of isopropanol. The plates were mixed for 30 min, and the absorbance was measured at 600 nm on a plate reader (FLUOstar OPTIMA, BMG LabTech). All samples were in triplicate. The IC50 values were determined from dose-response curves by nonlinear regression using PRISM v5.00 (GraphPad Software Inc, La Jolla, Calif., USA).
(§3) The in vitro cytotoxicity of 1-20 were evaluated by MTT assays in a panel of prostate cancer cell lines, including LNCaP, MDA PCa 2b, 22Rv1, C4-2B and PC-3.

LNCaP cells [2] = test system: LNCaP cells;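 further: MTT formazan absorbance at 600 nm read after 72 h of compound exposure, IC50 fitted by nonlinear regression of dose-response curves, samples run in triplicate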
MDA-MB-231 cells = test: Growth inhibition, MDA-MB-231 breast cancer cells; format: cell-based; conditions: for IC50: Homo sapiens, MDA-MB-231
Description: as §1

LNCaP cells [3] = test: MTT cell growth inhibition, LNCaP;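 further: MTT formazan absorbance at 600 nm read after 72 h of compound exposure, IC50 fitted by nonlinear regression of dose-response curves, samples run in triplicate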
22Rv1 cells [4] = test: MTT cell growth inhibition, 22Rv1; conditions: MTT, 72 h
C4-2B cells [5] = test: MTT cell growth inhibition, C4-2B;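 further: cells treated with a dilution series for 72 h, then MTT added and absorbance read at 600 nm, IC50 fitted from dose-response curves by nonlinear regression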
Description: as §2, §3

PC-3 cells [6] = test: MTT cell growth inhibition, PC-3
22Rv1 cells [7] = test system: 22Rv1 cells
PC-3 cells [8] = test system: PC-3 cells
[9] = Table 11, read-out: Cytotoxicity, IC50 (μM) MDA-MB231
[10] = Table 10, read-out: Cytotoxicity, IC50 (μM) MDA-M B231

IC50 (C4-2B cells [1]; human, 72 h) | IC50 (LNCaP cells [2]; human, 72 h) | IC50 (22Rv1 cells [7]) | IC50 (C4-2B cells [1]) | IC50 (LNCaP cells [2]) | IC50 (PC-3 cells [8]) | IC50 (MDA PCa 2b cells) | SMILES | IC50 (MCF-7 cells; Table 11) | IC50 (H-1975 cells; Table 11) | IC50 (MDA-MB-231 cells; [9]) | further results
5.7 µM | 10.9 µM | – | – | – | – | – | CC1=CCCC(C)(C)C1/C=C/C1=NNC(c2cccc(C(F)(F)F)c2)C1 (centres unmarked) [Compound C5] | 17.6 µM | 19.2 µM | 15.8 µM | –
– | – | – | – | – | – | – | CCn1c2ccccc2c2cc(/C=C/C(O)=C/C(=O)/C=C/C3=C(C)CCCC3(C)C)ccc21 [Compound 9] | – | – | – | effect in MCF-7 breast cancer cell line (MCF-7 cells): effective; IC50 (MCF-7 cells; Table 10): 9.3 µM; IC50 (LNCaP cells [3]; read-out: IC50 (μM) LNCaP, Table 1, 72 h): 9.9 µM; IC50 (22Rv1 cells [4]; read-out: IC50 (μM) 22Rv1, Table 1): 4.1 µM; effect in H-1975 lung cancer cell line (H-1975 cells): effective; IC50 (H-1975 cells; Table 10): 20.9 µM; effect in MDA-MB-231 breast cancer cell line (MDA-MB-231 cells): effective; IC50 (MDA-MB-231 cells; [10]): 11.7 µM; IC50 (C4-2B cells [5]; read-out: IC50 (μM) C4-2B, Table 1, 72 h): 7.4 µM; IC50 (μM) PC-3 (PC-3 cells [6]; Table 1, 72 h, maximum tested concentration 50 μM): Inactive^c
– | – | 8 µM | 1.8 µM | 5.8 µM | 15.5 µM | 12.6 µM | CC1=C(/C=C/C(=O)/C=C/c2ccccc2)C(C)(C)CCC1O (racemic) [Compound B23] | – | – | – | –
14.4 µM | 16.6 µM | – | – | – | – | – | CC(=O)N1N=C(/C=C/C2C(C)=CCCC2(C)C)CC1c1ccc(C(F)(F)F)cc1 (centres unmarked) [Compound C7] | 20.8 µM | 17.9 µM | 20 µM | –
22.1 µM | 24.7 µM | – | – | – | – | – | COc1ccc(C2CC(/C=C/C3=C(C)C(O)CCC3(C)C)=NN2C(C)=O)cc1OC (centres unmarked) [Compound C3] | > 25 µM | > 25 µM | > 25 µM | IC50 (PC-3 cells [8]; human, 72 h): 25.5 µM
– | – | 4.7 µM | 4 µM | 3.3 µM | 2.9 µM | 5.9 µM | CC1=CCCC(C)(C)C1/C=C/C(=O)/C=C/c1cccc([N+](=O)[O-])c1 (racemic) [Compound B21] | – | – | – | –
– | – | 3.2 µM | 7.3 µM | 2.2 µM | 7.3 µM | 10 µM | CC1=C(/C=C/C(=O)/C=C/c2ccc(F)c(C(F)(F)F)c2)C(C)(C)CCC1O (racemic) [Compound B32] | – | – | – | –
16.6 µM | 18.2 µM | – | – | – | – | – | CC(=O)N1N=C(/C=C/C2C(C)=CCCC2(C)C)CC1c1ccccc1C(F)(F)F (centres unmarked) [Compound C6] | 18.3 µM | 18.3 µM | 15.4 µM | –
4.4 µM | 1 µM | – | – | – | – | – | CC1=CCCC(C)(C)C1/C=C/C(=O)/C=C/c1cccc(C(F)(F)F)c1 (centres unmarked) [Compound B17, (1E,4E)-1-(3-(trifluoromethyl)phenyl)-5-(2,6,6-trimethylcyclohex-2-enyl)penta-1,4-dien-3-one] | – | – | – | IC50 (22Rv1 cells [7]; human, 72 h): 2.9 µM; IC50 (PC-3 cells [8]; human, 72 h): 5.2 µM; IC50 (MDA PCa 2b cells; human, 72 h): 4.4 µM
– | – | 3.3 µM | 5.2 µM | 4.7 µM | 7.9 µM | 7 µM | CC1=CCCC(C)(C)C1/C=C/C(=O)/C=C/c1ccc(C(F)(F)F)cc1 (racemic) [Compound B18] | – | – | – | –
– | – | – | – | – | – | – | COc1cc(/C=C/C(=O)CC(=O)/C=C/c2ccc(O)c(OC)c2)ccc1O [Curcumin, reference compound] | – | – | – | IC50 (MCF-7 cells; Table 10): 13.6 µM; IC50 (LNCaP cells [3]; read-out: Cellular IC50 (μM) LNCaP, Table 2, 72 h): 8.5 µM; IC50 (22Rv1 cells [4]; read-out: Cellular IC50 (μM) 22Rv1, Table 2): 18.3 µM; IC50 (H-1975 cells; Table 10): > 25 µM; IC50 (MDA-MB-231 cells; [10]): 15.7 µM; IC50 (C4-2B cells [5]; read-out: Cellular IC50 (μM) C4-2B, Table 2, 72 h): 6.1 µM; IC50 (PC-3 cells [6]; read-out: Cellular IC50 (μM) PC-3, Table 2, 72 h, max tested 50 μM (β-ionone 150 μM)): 16.8 µM
– | – | 3.5 µM | 4.7 µM | 1.7 µM | 3.1 µM | 3 µM | CC1=CCCC(C)(C)C1/C=C/C(=O)/C=C/c1cc(C(F)(F)F)ccc1F (racemic) [Compound B20] | – | – | – | –
– | 17.1 µM | – | – | – | – | – | CC(=O)N1N=C(/C=C/C2C(C)=CCCC2(C)C)CC1c1ccccc1F (centres unmarked) [Compound C1] | 25.3 µM | 23.7 µM | 20.4 µM | –
12.2 µM | 16.8 µM | – | – | – | – | – | CC(=O)N1N=C(/C=C/C2C(C)=CCCC2(C)C)CC1c1cccc(C(F)(F)F)c1 (centres unmarked) [Compound C2] | 23.1 µM | 14.8 µM | 14.4 µM | IC50 (PC-3 cells [8]; human, 72 h): 15.9 µM
17.8 µM | 35.4 µM | – | – | – | – | – | CC(=O)N1N=C(/C=C/C2=C(C)C(O)CCC2(C)C)CC1c1cccc(C(F)(F)F)c1 (centres unmarked) [Compound C4] | > 25 µM | > 25 µM | > 25 µM | IC50 (PC-3 cells [8]; human, 72 h): 47 µM
– | – | 9.4 µM | 6 µM | 1.6 µM | 4.8 µM | 8.3 µM | CC1=CCCC(C)(C)C1/C=C/C(=O)/C=C/c1ccccc1F (racemic) [Compound B19] | – | – | – | –
